Experimental data taken from the NIST ThermoML archive (doi:10.1007/s10765-012-1371-1).

Test: xn = mol fraction of the nth substance listed
Conditions: 101 kPa, Liquid

CC(C)CCl [1-chloro-2-methylpropane] + COC(C)(C)C
viscosity [mPa·s]
Conditions | 283.15 K | 288.15 K | 293.15 K | 298.15 K | 303.15 K | 308.15 K | 313.15 K
x1 = 0.0492 | 0.3948 | 0.369 | 0.3527 | 0.3369 | 0.3194 | 0.3035 | 0.2885
x1 = 0.0996 | 0.4002 | 0.3742 | 0.3573 | 0.3412 | 0.3237 | 0.3076 | 0.2926
x1 = 0.1979 | 0.4107 | 0.3844 | 0.3664 | 0.3495 | 0.3322 | 0.316 | 0.3005
x1 = 0.3023 | 0.4224 | 0.3957 | 0.3764 | 0.3587 | 0.3412 | 0.3248 | 0.3091
x1 = 0.4027 | 0.4338 | 0.4065 | 0.3861 | 0.3676 | 0.3502 | 0.3335 | 0.3174
x1 = 0.504 | 0.4458 | 0.4178 | 0.396 | 0.3768 | 0.3594 | 0.3424 | 0.3261
x1 = 0.5971 | 0.4574 | 0.4287 | 0.4057 | 0.3856 | 0.3681 | 0.351 | 0.3341
x1 = 0.7036 | 0.4714 | 0.442 | 0.4173 | 0.3962 | 0.3786 | 0.3611 | 0.3437
x1 = 0.8003 | 0.4848 | 0.4547 | 0.4286 | 0.4063 | 0.3886 | 0.3707 | 0.3527
x1 = 0.9031 | 0.5 | 0.4689 | 0.4413 | 0.4179 | 0.3998 | 0.3813 | 0.3626
x1 = 0.9522 | 0.5078 | 0.4763 | 0.4478 | 0.4238 | 0.4054 | 0.3868 | 0.3676
x1 = 1 | 0.5155 | 0.4833 | 0.454 | 0.4296 | 0.4112 | 0.3921 | 0.3726

CCCCCl [1-chlorobutane] + COC(C)(C)C
viscosity [mPa·s]
Conditions | 283.15 K | 288.15 K | 293.15 K | 298.15 K | 303.15 K | 308.15 K | 313.15 K
x1 = 0.0499 | 0.395 | 0.369 | 0.3525 | 0.3367 | 0.3193 | 0.3033 | 0.288
x1 = 0.1002 | 0.4003 | 0.3741 | 0.3571 | 0.3409 | 0.3234 | 0.3074 | 0.2915
x1 = 0.2011 | 0.411 | 0.3844 | 0.3663 | 0.3494 | 0.332 | 0.3159 | 0.2991
x1 = 0.302 | 0.4224 | 0.3952 | 0.3758 | 0.3582 | 0.3408 | 0.3247 | 0.3068
x1 = 0.4007 | 0.4339 | 0.4063 | 0.3855 | 0.367 | 0.3498 | 0.3335 | 0.3146
x1 = 0.5026 | 0.4461 | 0.418 | 0.3959 | 0.3765 | 0.3592 | 0.3428 | 0.3229
x1 = 0.6029 | 0.4581 | 0.4295 | 0.4063 | 0.386 | 0.3686 | 0.3519 | 0.3312
x1 = 0.693 | 0.4686 | 0.4396 | 0.4155 | 0.3945 | 0.377 | 0.3605 | 0.3389
x1 = 0.8064 | 0.481 | 0.4518 | 0.4266 | 0.4048 | 0.3876 | 0.371 | 0.3482
x1 = 0.904 | 0.4912 | 0.4616 | 0.4355 | 0.4134 | 0.3966 | 0.3799 | 0.3563
x1 = 0.9509 | 0.4951 | 0.4658 | 0.4392 | 0.4173 | 0.4007 | 0.3841 | 0.3601
x1 = 1 | 0.4993 | 0.4701 | 0.4433 | 0.4214 | 0.405 | 0.3885 | 0.3642

CCC(C)Cl (stereo unspecified) [2-chlorobutane] + COC(C)(C)C
viscosity [mPa·s]
Conditions | 283.15 K | 288.15 K | 293.15 K | 298.15 K | 303.15 K | 308.15 K | 313.15 K
x1 = 0.0434 | 0.3916 | 0.3664 | 0.3507 | 0.3353 | 0.3177 | 0.3019 | 0.287
x1 = 0.0928 | 0.3949 | 0.3694 | 0.3536 | 0.3383 | 0.3207 | 0.3048 | 0.2897
x1 = 0.1824 | 0.4008 | 0.3752 | 0.3591 | 0.3436 | 0.3261 | 0.3099 | 0.2948
x1 = 0.2774 | 0.4072 | 0.3816 | 0.365 | 0.3495 | 0.3319 | 0.3155 | 0.3002
x1 = 0.3786 | 0.4141 | 0.3883 | 0.3715 | 0.3558 | 0.338 | 0.3215 | 0.306
x1 = 0.4751 | 0.4208 | 0.3951 | 0.3779 | 0.3619 | 0.3441 | 0.3273 | 0.3117
x1 = 0.584 | 0.4287 | 0.4029 | 0.3853 | 0.3691 | 0.351 | 0.334 | 0.3182
x1 = 0.6819 | 0.436 | 0.4101 | 0.3921 | 0.3757 | 0.3575 | 0.3401 | 0.3241
x1 = 0.8032 | 0.4456 | 0.4195 | 0.4009 | 0.3843 | 0.3657 | 0.3481 | 0.3317
x1 = 0.9015 | 0.4536 | 0.4274 | 0.4084 | 0.3915 | 0.3727 | 0.3547 | 0.3379
x1 = 0.9512 | 0.458 | 0.4318 | 0.4125 | 0.3954 | 0.3764 | 0.3581 | 0.3411
x1 = 1 | 0.4631 | 0.4365 | 0.4167 | 0.3993 | 0.38 | 0.3615 | 0.3443

CCCCOCC [butyl ethyl ether] + CC(C)CCl
viscosity [mPa·s]
Conditions | 283.15 K | 288.15 K | 293.15 K | 298.15 K | 303.15 K | 308.15 K | 313.15 K
x2 = 0 | 0.4796 | 0.4509 | 0.4242 | 0.399 | 0.3756 | 0.356 | 0.3416
x2 = 0.0493 | 0.4797 | 0.4512 | 0.4246 | 0.3993 | 0.3762 | 0.3569 | 0.3423
x2 = 0.1004 | 0.4799 | 0.4514 | 0.4248 | 0.3998 | 0.3771 | 0.3578 | 0.3432
x2 = 0.2001 | 0.4812 | 0.4526 | 0.4259 | 0.4012 | 0.3793 | 0.3603 | 0.3455
x2 = 0.3012 | 0.4836 | 0.4548 | 0.4279 | 0.4035 | 0.3822 | 0.3634 | 0.3481
x2 = 0.4021 | 0.4866 | 0.4574 | 0.4305 | 0.4063 | 0.3855 | 0.3667 | 0.3511
x2 = 0.5025 | 0.4903 | 0.4609 | 0.4337 | 0.4097 | 0.3893 | 0.3704 | 0.3543
x2 = 0.6007 | 0.4946 | 0.4649 | 0.4374 | 0.4133 | 0.3933 | 0.3745 | 0.3576
x2 = 0.6993 | 0.4994 | 0.4692 | 0.4412 | 0.4171 | 0.3975 | 0.3786 | 0.3612
x2 = 0.7994 | 0.5044 | 0.4736 | 0.4453 | 0.4211 | 0.4021 | 0.3832 | 0.3649
x2 = 0.8993 | 0.5099 | 0.4783 | 0.4496 | 0.4253 | 0.4065 | 0.3875 | 0.3687
x2 = 0.9491 | 0.5126 | 0.4808 | 0.4518 | 0.4274 | 0.4089 | 0.3898 | 0.3706
